Measurements published in US7173037B2, “Carbamate-substituted pyrazolopyridines” (Bayer HealthCare AG, priority 2002, dated 2007).
Read-outs that look alike come from different tables or passages of the source.

Columns and labels:
[1] = test system: rabbit aorta rings; assay: Vasorelaxant effect in vitro (phenylephrine-contracted aorta rings); type: cell-based; conditions: Oryctolagus cuniculus, phenylephrine contraction, read-out: IC50 (concentration necessary to reduce the height of the contraction by 50%)
Protocol: Rabbits are stunned by a blow to the back of the neck and are exsanguinated. The aorta is removed, freed of adherent tissue and divided into rings 1.5 mm wide, which are put singly under tension in 5 ml organ baths containing carbogen-gassed Krebs-Henseleit solution at 37° C. with the following composition (mM): NaCl:119; KCl:4.8; CaCl2×2H2O:1; MgSO4×7H2O:1.4; KH2PO4:1.2; NaHCO3:25; Glucose:10. The force of contraction is detected with Statham UC2 cells, amplified and digitized via A/D converters (DAS-1802 HC, Keithley Instruments Munich) and recorded in parallel on chart recorders. A contraction is generated by adding phenylephrine to the bath cumulatively in increasing concentration. After several control cycles, the substance to be investigated is investigated in each further run in increasing dosage in each case, and the height of the contraction is compared with the height of the contraction reached in the last preceding run. The concentration necessary to reduce the height of the control value by 50% (IC50) is calculated from this. The standard application volume is 5 μl, and the DMSO content in the bath solution corresponds to 0.1%.

[2] = test system: rabbit penis erection; assay: Rabbit model (erection, length of the protruding penis); type: in vivo, chinchilla rabbits; conditions: oral administration, with simultaneous 0.2 mg/kg i.v. sodium nitroprusside SNP
Protocol: Adult male chinchilla rabbits weighing 3–5 kg are adapted to being kept singly for several days after delivery. They have free access to water and can take feed for two hours a day. The animals are kept in a 10/14-hour day/night rhythm (light on from 8.00 h), and the room temperature is 22–24° C.
Three to six animals are used in each treatment group and are weighed immediately before the start of the test. For the i.v. administration, the substances are dissolved in Transcutol (GATTEFOSSE GmbH) and diluted in the ratio 3/7 with a 20% strength Cremophor solution (Cremophor (BASF), water). A volume of 0.5 ml/kg is injected into the ear vein. Water-soluble substances are injected in 0.9% sodium chloride solution.
For oral administration, the test substances are dissolved in a 6:10:9.69 glycerol:water:polyethylene glycol mixture and administered by gavage in a volume of 1 ml/kg.
Under resting conditions, the rabbit penis is invisible in the pubic region and is completely covered by the penis skin. The erection is assessed by measuring the length of the protruding penis with a slide calliper. […] The animals are for this purpose removed from the cage each time, held firmly by the neck fur and the rear paws, turned on their backs and measured. […]

[3] = set-up: species or system rats; conditions: rat, in vivo, po
Protocol: The substance to be investigated is administered intravenously as solution to animals (e.g. mice, rats, dogs), and oral administration takes place as solution or suspension by gavage. After administration of the substance, blood is taken from the animals at fixed times and is heparinized, and then plasma is obtained therefrom by centrifugation. The substance is quantified analytically in the plasma by LC/MS/MS. The plasma concentration/time courses found in this way are used to calculate the pharmacokinetic parameters by means of a validated pharmacokinetic computer programme.
Inhibition of Cytochrome P450 Enzymes

[4] = test system: CYP1A2; assay: Induction of cytochrome P450 enzymes in human liver cell cultures, CYP1A2; type: in vitro ADME; conditions: human hepatocyte cultures, control = 1.0
[5] = test system: CYP2B6; conditions: human, hepatocytes, 5 days
[6] = test system: CYP2C19; conditions: human, hepatocytes, 5 days
[7] = test system: CYP3A4; conditions: human, hepatocytes
[8] = test system: CYP2B6; assay: Induction of cytochrome P450 enzymes in human liver cell cultures, CYP2B6; conditions: human hepatocyte cultures, 2000 μM, control = 1.0
[9] = test system: CYP2C19; assay: Induction of cytochrome P450 enzymes in human liver cell cultures, CYP2C19; conditions: human hepatocyte cultures, 2000 μM, control = 1.0

Compound: COC(=O)N(C)c1cnc(-c2nn(Cc3ccccc3F)c3ncccc23)nc1N [Example 1, Methyl 4-amino-2-[1-(2-fluorobenzyl)-1H-pyrazolo[3,4-b]pyridin-3-yl]-5-pyrimidinyl(methyl)carbamate]
- IC50 [1]: 670 nM

Compound: COC(=O)N(C)c1c(N)nc(-c2nn(Cc3ccccc3F)c3ncccc23)nc1N [Example 8, Methyl 4,6-diamino-2-[1-(2-fluorobenzyl)-1H-pyrazolo[3,4-b]pyridin-3-yl]-5-pyrimidinyl(methyl)carbamate]
- IC50 [1]: 500 nM
- minimal effective dose [2]: 0.03 mg/kg
- AUCstand ([3]; 0.3 mg/kg): 0.326 kg·h/L
- AUCstand ([3]; 1 mg/kg): 0.548 kg·h/L
- Inductive effect on CYP1A2 activity (standardized) ([4]; 0.01 μg/ml): 0.76
- Inductive effect on CYP1A2 activity (standardized) ([4]; 0.1 μg/ml): 0.70
- Inductive effect on CYP1A2 activity (standardized) ([4]; 1.0 μg/ml): 0.90
- Inductive effect on CYP1A2 activity (standardized) ([4]; 10 μg/ml): 1.38
- Inductive effect on CYP2B6 activity (standardized) ([5]; 0.01 μg/ml): 1.92
- Inductive effect on CYP2B6 activity (standardized) ([5]; 0.1 μg/ml): 1.62
- Inductive effect on CYP2B6 activity (standardized) ([5]; 1 μg/ml): 1.85
- Inductive effect on CYP2B6 activity (standardized) ([5]; 10 μg/ml): 2.54
- Inductive effect on CYP2C19 activity (standardized) ([6]; 0.01 μg/ml): 1.30
- Inductive effect on CYP2C19 activity (standardized) ([6]; 0.1 μg/ml): 1.30
- Inductive effect on CYP2C19 activity (standardized) ([6]; 1 μg/ml): 1.12
- Inductive effect on CYP2C19 activity (standardized) ([6]; 10 μg/ml): 1.97
- Inductive effect on CYP3A4 activity (standardized) ([7]; 5 days, 0.01 μg/ml): 1.37
- Inductive effect on CYP3A4 activity (standardized) ([7]; 5 days, 0.1 μg/ml): 1.60
- Inductive effect on CYP3A4 activity (standardized) ([7]; 5 days, 1 μg/ml): 1.51
- Inductive effect on CYP3A4 activity (standardized) ([7]; 5 days, 10 μg/ml): 3.47

Compound: COc1ccc2[nH]c([S+]([O-])Cc3ncc(C)c(OC)c3C)nc2c1 (stereo not drawn) [OME, omeprazole, reference compound]
- Inductive effect on CYP1A2 activity (standardized) ([4]; 100 μM): 28.57
- Inductive effect on CYP2B6 activity (standardized) ([5]; 100 μM): 1.54
- Inductive effect on CYP2C19 activity (standardized) ([6]; 100 μM): 1.61
- Inductive effect on CYP3A4 activity (standardized) ([7]; 5 days, 100 μM): 1.45

Compound: CCC1(c2ccccc2)C(=O)NC(=O)NC1=O [PB, phenobarbital]
- Inductive effect on CYP3A4 activity (standardized) [7]: 6.70
- Inductive effect on CYP2B6 activity (standardized) [8]: 14.69
- Inductive effect on CYP2C19 activity (standardized) [9]: 4.00

Compound: CO[C@H]1/C=C/O[C@@]2(C)Oc3c(C)c(O)c4c(O)c(c(/C=N/N5CCN(C)CC5)c(O)c4c3C2=O)NC(=O)/C(C)=C\C=C\[C@H](C)[C@H](O)[C@@H](C)[C@@H](O)[C@@H](C)[C@H](OC(C)=O)[C@@H]1C [RIF, rifampicin, reference compound]
- Inductive effect on CYP2B6 activity (standardized) ([5]; 50 μM): 5.15
- Inductive effect on CYP2C19 activity (standardized) ([6]; 50 μM): 15.21
